Results taken from publication PMC10818749, “Toxicity Studies of Cardiac-Targeting Peptide Reveal a Robust Safety Profile” (Pharmaceutics, 2024).
“Also recorded” adds a separate entry of the source. Ends that are not written are not given here.

Legend:
[1] = target: NAV1.5 (Homo sapiens, UniProt Q14524); assay: in vitro; format: cell-based; conditions: up to 30 µM
Experimental: (§1) Ion Channel Assays: Cell lines were grown, plated, and loaded with 1× loading buffer containing 1× dye and 2.5 mM freshly prepared probenecid. Assays were performed, and activity was measured using a FLIPR Tetra. Percent of activation and percent of inhibition were calculated to determine agonist and antagonist activity, respectively. […]
(§2) The KINOMEscan screening platform employs a novel and propri- Membrane Potential Assay etary active site-directed competition binding assay to quantitatively The FLIPR® Membrane Potential Assay Kit is used which utilizes a pro-measure interactions between test compounds and the kinases. prietary fluorescent indicator dye in combination with a quencher to This robust and reliable assay technology affords investigators the reflect real-time membrane potential changes associated with ion ability to extensively annotate compounds with accurate, precise channel activation and ion transporter proteins. […]
(§3) Compounds that bind the kinase active site and directly (sterically) be monitored within a single experiment. […]
Upon stimulation, […]
(§4) a quantitative, precise and ultra-sensitive qPCR method that detects the receptor signals release of intracellular calcium, which results in the associated DNA label (D). In a similar manner, dissociation con- an increase of dye fluorescence. […]
1. Compound activity was measured on a FLIPR Tetra (MDS). […]

[2] = target: CAV1.2 (Homo sapiens, UniProt Q13936); assay: in vitro; format: cell-based; conditions: blocker; FLIPR Tetra; up to 30 µM; read-out: RC50 (the source's name)
Experimental: as §1, §2, §3, §4
Neurotransmitter Transporter Uptake Assay spectrophotometric, fluorometric, and luminescent readouts. […]

[3] = tested on: B6-wildtype mice; assay: Blood pressure pre- and post-CTP injection; format: in vivo, mouse; conditions: CTP 10 mg/Kg i.v.; 6 h post-injection vs pre-injection; six mice, isoflurane
Experimental: Blood Pressure Pre- and Post-CTP Injection: Six B6-wildtype mice were obtained from the Jackson Laboratory. Blood pressure was taken using a non-invasive blood pressure system from Kent Scientific. Mice were anesthetized using 2.5% isoflurane exposure for 5 min, placed in a tube holder, and warmed using a warming blanket for approximately 15 min before their tails were fitted with blood pressure cuffs. A total of 21 blood pressure readings were taken, and average systolic and diastolic blood pressure calculated. After baseline blood pressure was established, mice were injected intravenously with 10 mg/Kg of CTP, and blood pressure was measured again 6 h post-injection.

[4] = target: T1, HEK-Kir2.1 (Homo sapiens, UniProt P63252); format: cell-based; conditions: CTP 0.1 to 30 µM; HEK cells; step to -120mV; 0.1% Pluronic F-68
T1 construct: host or cells: HEK
T1 sequence (P63252 whole entry): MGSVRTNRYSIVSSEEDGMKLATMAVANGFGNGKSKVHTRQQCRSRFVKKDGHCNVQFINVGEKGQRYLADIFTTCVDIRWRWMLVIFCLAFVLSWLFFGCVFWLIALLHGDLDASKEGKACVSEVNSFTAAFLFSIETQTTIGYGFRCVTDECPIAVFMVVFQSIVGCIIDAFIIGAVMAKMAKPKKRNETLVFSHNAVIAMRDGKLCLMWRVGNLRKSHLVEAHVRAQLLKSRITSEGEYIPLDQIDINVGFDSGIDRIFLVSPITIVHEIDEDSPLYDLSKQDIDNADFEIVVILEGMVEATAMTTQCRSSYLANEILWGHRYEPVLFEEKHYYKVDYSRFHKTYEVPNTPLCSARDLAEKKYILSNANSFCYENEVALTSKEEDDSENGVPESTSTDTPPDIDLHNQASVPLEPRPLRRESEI

[5] = tested on: cardiomyocytes; conditions: cited from earlier work
Text: Targeted delivery of therapeutics specifically to cardiomyocytes would open up new frontiers for common conditions like heart failure. […] CTP has been used to deliver imaging agents, small drug molecules, photosensitizing nanoparticles, exosomes, and even miRNA to cardiomyocytes. As a natural extension to the development of CTP as a clinically viable ... || Advances in the development of novel technologies in pharmaceutics today necessitate the development of safe and effective targeted delivery methods for cargoes such as nanoparticles, siRNA, drugs, and more. Cell-penetrating peptides (CPPs), which are small, positively charged peptides capable of crossing the cell membrane barrier, provide a promising method for intracellular delivery, which is highly efficient and minimally cytotoxic. Tat (HIV trans-activator of transcription) was the first CPP to be discovered to enter the cell and induce the expression of viral genes ... || Heart disease and cardiac illness continue to be a leading cause of death in the US [16], and, as such, novel treatments for increasingly prevalent conditions such as heart failure and atrial fibrillation are sorely needed.

Chain of NAV1.5 (Q14524 whole entry): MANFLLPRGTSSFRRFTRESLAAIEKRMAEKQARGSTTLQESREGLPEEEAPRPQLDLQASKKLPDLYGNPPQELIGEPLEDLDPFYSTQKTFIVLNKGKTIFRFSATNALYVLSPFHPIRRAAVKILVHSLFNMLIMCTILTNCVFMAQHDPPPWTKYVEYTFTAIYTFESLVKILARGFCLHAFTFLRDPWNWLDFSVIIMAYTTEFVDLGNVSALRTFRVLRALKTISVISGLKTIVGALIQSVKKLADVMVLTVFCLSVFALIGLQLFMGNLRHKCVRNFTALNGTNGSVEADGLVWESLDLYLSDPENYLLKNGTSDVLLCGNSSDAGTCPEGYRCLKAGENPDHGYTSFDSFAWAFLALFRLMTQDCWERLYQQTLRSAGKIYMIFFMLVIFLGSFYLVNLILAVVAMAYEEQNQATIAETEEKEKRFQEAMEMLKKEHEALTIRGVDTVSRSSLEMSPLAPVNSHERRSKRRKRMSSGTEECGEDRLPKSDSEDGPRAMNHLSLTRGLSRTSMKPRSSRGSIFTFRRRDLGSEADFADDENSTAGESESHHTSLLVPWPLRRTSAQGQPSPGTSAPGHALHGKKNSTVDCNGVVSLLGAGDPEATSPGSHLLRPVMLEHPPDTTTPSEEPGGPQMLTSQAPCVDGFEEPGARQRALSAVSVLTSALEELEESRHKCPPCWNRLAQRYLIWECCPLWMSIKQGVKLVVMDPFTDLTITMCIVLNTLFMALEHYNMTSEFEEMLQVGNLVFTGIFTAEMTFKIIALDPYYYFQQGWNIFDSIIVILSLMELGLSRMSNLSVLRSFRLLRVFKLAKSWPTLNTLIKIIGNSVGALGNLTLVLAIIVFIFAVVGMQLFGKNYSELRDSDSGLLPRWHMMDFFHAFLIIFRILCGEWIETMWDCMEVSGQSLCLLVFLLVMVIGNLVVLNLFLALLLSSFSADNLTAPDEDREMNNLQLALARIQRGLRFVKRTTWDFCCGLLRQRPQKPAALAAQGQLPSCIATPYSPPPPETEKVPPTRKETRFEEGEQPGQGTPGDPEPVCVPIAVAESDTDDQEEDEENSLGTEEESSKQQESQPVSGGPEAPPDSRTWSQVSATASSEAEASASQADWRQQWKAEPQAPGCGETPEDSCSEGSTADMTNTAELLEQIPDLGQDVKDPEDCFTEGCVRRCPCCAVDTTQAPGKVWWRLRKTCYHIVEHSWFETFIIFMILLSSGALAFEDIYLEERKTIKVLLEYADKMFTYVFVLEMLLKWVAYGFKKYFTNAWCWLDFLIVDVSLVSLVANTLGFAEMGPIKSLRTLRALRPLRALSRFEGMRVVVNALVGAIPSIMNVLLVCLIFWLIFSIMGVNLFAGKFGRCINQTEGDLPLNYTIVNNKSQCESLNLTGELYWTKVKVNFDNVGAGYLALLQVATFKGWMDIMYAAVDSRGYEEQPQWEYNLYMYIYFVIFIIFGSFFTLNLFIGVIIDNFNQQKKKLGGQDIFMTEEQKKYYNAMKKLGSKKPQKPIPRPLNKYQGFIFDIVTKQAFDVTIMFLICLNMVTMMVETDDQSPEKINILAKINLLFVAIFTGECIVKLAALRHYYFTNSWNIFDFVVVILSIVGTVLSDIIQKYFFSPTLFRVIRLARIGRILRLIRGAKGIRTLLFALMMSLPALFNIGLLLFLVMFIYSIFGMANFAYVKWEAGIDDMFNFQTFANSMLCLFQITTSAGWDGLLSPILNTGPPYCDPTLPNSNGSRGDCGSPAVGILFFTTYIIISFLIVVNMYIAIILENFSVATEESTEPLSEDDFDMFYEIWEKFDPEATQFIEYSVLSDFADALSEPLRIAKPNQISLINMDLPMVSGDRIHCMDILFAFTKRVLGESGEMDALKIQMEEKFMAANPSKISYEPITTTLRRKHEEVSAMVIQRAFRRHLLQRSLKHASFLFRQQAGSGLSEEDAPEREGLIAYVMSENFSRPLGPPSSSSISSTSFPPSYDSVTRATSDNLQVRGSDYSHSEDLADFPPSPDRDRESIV

Which blocking or activation ([1]; SAFETYscan ion channel assay) does the source give for APWHLSSQYSRT [CTP] here?
Its blocking or activation is “no significant blocking or activation”.

What about the IC50 ([1]; blocker, FLIPR Tetra, read-out: RC50 (the source's name)) of the same sequence?
Its IC50 is over 30 µM.

And the IC50 [2]?
The IC50 was over 30 µM.

What about the diastolic blood pressure [3] of the same sequence?
Its diastolic blood pressure is “No significant difference; also recorded: no significant (ns) change”.

What about the systolic blood pressure [3] of the same sequence?
The systolic blood pressure was “No significant difference; also recorded: no significant (ns) change”.

And the “Estimated IC50” value [4]?
Its value is “N/C (Not calculable, inhibition >25% was not observed.)”.

What about the “cell specificity in the heart” value ([5]; fibroblasts, endothelial cells, myofibroblasts spared, ref [19]) of the same sequence?
Its value is “targets cardiomyocytes specifically while sparing the other cells”.

What about the “time to targeting of cardiomyocytes after intravenous injection” value ([5]; intravenous injection, "in as little as", ref our prior work) of the same sequence?
The value was about 5 min.

And the “time to transduction of cardiomyocytes after intravenous injection” value ([5]; peripheral intravenous injection, "in as little as", ref [6],[15])?
Its value is about 15 min.

What about the “blood–brain barrier crossing” value ([5]; ref [15]) of the same sequence?
Its value is “does not cross the blood–brain barrier”.

What about the “uptake by other tissues” value ([5]; ref [15]) of the same sequence?
Its value is “not taken up by the lungs, spleen, or other muscle subtypes”.
